Article PMC10734772 (Turkish Journal of Chemistry, 2021)

What was measured:
Assay type in all cases: cell-based
[1] = system: K562; test: MTT assay, K562 cells; details: Homo sapiens, 24 h
[2] = system: Nalm-6; test: MTT assay, Nalm-6 cells; details: Homo sapiens, 24 h
[3] = system: Molt-4; test: MTT assay, Molt-4 cells
[4] = system: Reh; test: MTT assay, Reh cells; details: Homo sapiens, 24 h, read-out: Viability rate
[5] = system: Jurkat; test: MTT assay, Jurkat cells; details: Homo sapiens, 24 h, read-out: Viability rate
[6] = MTT assay, Hek293T non-leukemic control cells; details: human, read-out: Viability rate
[7] = system: K562, Nalm-6, Molt-4, Reh, Jurkat, Hek293T cell lines; test: MTT assay, overall judgement over all cell lines; details: overall judgement in words; for 6 and 10: on all cell lines, except Reh
How it was run: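 MTT viability assay run across a range of compound concentrations in leukemic lines, BCR-ABL positive K562 and BCR-ABL negative Nalm-6, Molt-4, Reh, Jurkat, plus non-leukemic Hek293T. Viability rate calculated per concentration.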

- IC50 ([1]; K562, MTT, range 0.3–200 μM, six replicates): 35 µM
Compound: COc1ccc(CN2CCN(Cc3ccc(C(=O)Nc4ccc(C)c(Nc5cc(C)ccn5)c4)cc3)CC2)c(OC)c1OC [Compound 10, N-(4-Methyl-3-((4-methylpyridin-2-yl)amino)phenyl)-4-((4-(2,3,4-trimethoxybenzyl)piperazin-1-yl)methyl)benzamide]
- viability at 0.3 µM ([1]; K562, 0.3 μM, MTT, read-out: Viability rate): 104.1 ± 0.07%
- viability at 0.5 µM ([1]; K562, 0.5 μM, MTT, read-out: Viability rate): 103.4 ± 0.06%
- viability at 1 µM ([1]; K562, 1 μM, MTT, read-out: Viability rate): 98.9 ± 0.05%
- viability at 3 µM ([1]; K562, 3 μM, MTT, read-out: Viability rate): 98.7 ± 0.04%
- viability at 5 µM ([1]; K562, 5 μM, MTT, read-out: Viability rate): 98.6 ± 0.06%
- viability at 10 µM ([1]; K562, 10 μM, MTT, read-out: Viability rate): 98.9 ± 0.09%
- viability at 15 µM ([1]; K562, 15 μM, MTT, read-out: Viability rate): 98.6 ± 0.08%
- viability at 20 µM ([1]; K562, 20 μM, MTT, read-out: Viability rate): 79.2 ± 0.06%
- viability at 30 µM ([1]; K562, 30 μM, MTT, read-out: Viability rate): 78.9 ± 0.1%
- viability at 50 µM ([1]; K562, 50 μM, MTT, read-out: Viability rate): 56.1 ± 0.03%
- viability at 70 µM ([1]; K562, 70 μM, MTT, read-out: Viability rate): 38.5 ± 0.02%
- viability at 100 µM ([1]; K562, 100 μM, MTT, read-out: Viability rate): 38.7 ± 0.01%
- viability at 150 µM ([1]; K562, 150 μM, MTT, read-out: Viability rate): 38.9 ± 0.01%
- viability at 200 µM ([1]; K562, 200 μM, MTT, read-out: Viability rate): 38.7%
- viability at 0.3 µM ([2]; Nalm-6, 0.3 μM, MTT, read-out: Viability rate): 92.7 ± 0.08%
- viability at 0.5 µM ([2]; Nalm-6, 0.5 μM, MTT, read-out: Viability rate): 88.6 ± 0.06%
- viability at 1 µM ([2]; Nalm-6, 1 μM, MTT, read-out: Viability rate): 87.3 ± 0.07%
- viability at 3 µM ([2]; Nalm-6, 3 μM, MTT, read-out: Viability rate): 86.5 ± 0.02%
- viability at 5 µM ([2]; Nalm-6, 5 μM, MTT, read-out: Viability rate): 85.5 ± 0.06%
- viability at 10 µM ([2]; Nalm-6, 10 μM, MTT, read-out: Viability rate): 84.8 ± 0.08%
- viability at 15 µM ([2]; Nalm-6, 15 μM, MTT, read-out: Viability rate): 82.2 ± 0.08%
- viability at 20 µM ([2]; Nalm-6, 20 μM, MTT, read-out: Viability rate): 71.9 ± 0.07%
- viability at 30 µM ([2]; Nalm-6, 30 μM, MTT, read-out: Viability rate): 54.2 ± 0.07%
- viability at 50 µM ([2]; Nalm-6, 50 μM, MTT, read-out: Viability rate): 29.8 ± 0.01%
- viability at 70 µM ([2]; Nalm-6, 70 μM, MTT, read-out: Viability rate): 28.8 ± 0.01%
- viability at 100 µM ([2]; Nalm-6, 100 μM, MTT, read-out: Viability rate): 28.7 ± 0.01%
- viability at 150 µM ([2]; Nalm-6, 150 μM, MTT, read-out: Viability rate): 28.5 ± 0.01%
- viability at 200 µM ([2]; Nalm-6, 200 μM, MTT, read-out: Viability rate): 28.7%
- IC50 ([2]; Nalm-6, MTT, range 0.3–200 μM, six replicates): 28.7 µM
- viability at 0.3 µM ([3]; Homo sapiens, MOLT-4, 24 h, Molt-4, 0.3 μM, read-out: Viability rate): 87.9 ± 0.03%
- viability at 0.5 µM ([3]; Homo sapiens, MOLT-4, 24 h, Molt-4, 0.5 μM, read-out: Viability rate): 86.8 ± 0.02%
- viability at 1 µM ([3]; Homo sapiens, MOLT-4, 24 h, Molt-4, 1 μM, read-out: Viability rate): 87.7 ± 0.01%
- viability at 3 µM ([3]; Homo sapiens, MOLT-4, 24 h, Molt-4, 3 μM, read-out: Viability rate): 86.5 ± 0.02%
- viability at 5 µM ([3]; Homo sapiens, MOLT-4, 24 h, Molt-4, 5 μM, read-out: Viability rate): 86.2 ± 0.08%
- viability at 10 µM ([3]; Homo sapiens, MOLT-4, 24 h, Molt-4, 10 μM, read-out: Viability rate): 89.1 ± 0.03%
- viability at 15 µM ([3]; Homo sapiens, MOLT-4, 24 h, Molt-4, 15 μM, read-out: Viability rate): 88.1 ± 0.04%
- viability at 20 µM ([3]; Homo sapiens, MOLT-4, 24 h, Molt-4, 20 μM, read-out: Viability rate): 77 ± 0.04%
- viability at 30 µM ([3]; Homo sapiens, MOLT-4, 24 h, Molt-4, 30 μM, read-out: Viability rate): 65.3 ± 0.03%
- viability at 50 µM ([3]; Homo sapiens, MOLT-4, 24 h, Molt-4, 50 μM, read-out: Viability rate): 52.1 ± 0.03%
- viability at 70 µM ([3]; Homo sapiens, MOLT-4, 24 h, Molt-4, 70 μM, read-out: Viability rate): 42.8 ± 0.01%
- viability at 100 µM ([3]; Homo sapiens, MOLT-4, 24 h, Molt-4, 100 μM, read-out: Viability rate): 40.4 ± 0.01%
- viability at 150 µM ([3]; Homo sapiens, MOLT-4, 24 h, Molt-4, 150 μM, read-out: Viability rate): 40 ± 0.01%
- viability at 200 µM ([3]; Homo sapiens, MOLT-4, 24 h, Molt-4, 200 μM, read-out: Viability rate): 40.7 ± 0.01%
- Viability rate ([3]; Molt-4, 200 μM, 24 h, 200 µM): < 50%
- viability at 0.3 µM ([4]; 0.3 μM): 93.4 ± 0.02%
- viability at 0.5 µM ([4]; 0.5 μM): 92.4 ± 0.02%
- viability at 1 µM ([4]; 1 μM): 92.4 ± 0.01%
- viability at 3 µM ([4]; 3 μM): 92.6 ± 0.02%
- viability at 5 µM ([4]; 5 μM): 92.8 ± 0.02%
- viability at 10 µM ([4]; 10 μM): 92.3 ± 0.03%
- viability at 15 µM ([4]; 15 μM): 92.6 ± 0.02%
- viability at 20 µM ([4]; 20 μM): 91.8 ± 0.01%
- viability at 30 µM ([4]; 30 μM): 65.6 ± 0.02%
- viability at 50 µM ([4]; 50 μM): 59.5 ± 0.03%
- viability at 70 µM ([4]; 70 μM): 59.1 ± 0.02%
- viability at 100 µM ([4]; 100 μM): 59.6 ± 0.03%
- viability at 150 µM ([4]; 150 μM): 57.4 ± 0.03%
- viability at 200 µM ([4]; 200 μM): 55.2 ± 0.03%
- viability at 0.3 µM ([5]; 0.3 μM): 73 ± 0.1%
- viability at 0.5 µM ([5]; 0.5 μM): 71.7 ± 0.1%
- viability at 1 µM ([5]; 1 μM): 70.9 ± 0.08%
- viability at 3 µM ([5]; 3 μM): 69.4 ± 0.03%
- viability at 5 µM ([5]; 5 μM): 68.7 ± 0.05%
- viability at 10 µM ([5]; 10 μM): 68.1 ± 0.09%
- viability at 15 µM ([5]; 15 μM): 67.5 ± 0.07%
- viability at 20 µM ([5]; 20 μM): 64.1 ± 0.15%
- viability at 30 µM ([5]; 30 μM): 61.7 ± 0.07%
- viability at 50 µM ([5]; 50 μM): 61.4 ± 0.05%
- viability at 70 µM ([5]; 70 μM): 50.5 ± 0.02%
- viability at 100 µM ([5]; 100 μM): 38.1 ± 0.2%
- viability at 150 µM ([5]; 150 μM): 35.9 ± 0.12%
- viability at 200 µM ([5]; 200 μM): 32.5 ± 0.03%
- viability at 24 h, 0.3 µM ([6]; Hek293T cells (non-leukemic control cell line), 0.3 μM): 82.8 ± 0.02%
- viability at 24 h, 0.5 µM ([6]; Hek293T cells (non-leukemic control cell line), 0.5 μM): 78.2 ± 0.01%
- viability at 24 h, 3 µM ([6]; Hek293T cells (non-leukemic control cell line), 3 μM): 80.4 ± 0.02%
- viability at 24 h, 5 µM ([6]; Hek293T cells (non-leukemic control cell line), 5 μM): 79.1 ± 0.01%
- viability at 24 h, 10 µM ([6]; Hek293T cells (non-leukemic control cell line), 10 μM): 80.2 ± 0.02%
- viability at 24 h, 15 µM ([6]; Hek293T cells (non-leukemic control cell line), 15 μM): 81.4 ± 0.01%
- viability at 24 h, 20 µM ([6]; Hek293T cells (non-leukemic control cell line), 20 μM): 80.8 ± 0.01%
- viability at 24 h, 30 µM ([6]; Hek293T cells (non-leukemic control cell line), 30 μM): 82.2 ± 0.03%
- viability at 24 h, 50 µM ([6]; Hek293T cells (non-leukemic control cell line), 50 μM): 79.2 ± 0.03%
- viability at 24 h, 70 µM ([6]; Hek293T cells (non-leukemic control cell line), 70 μM): 80.2 ± 0.02%
- viability at 24 h, 100 µM ([6]; Hek293T cells (non-leukemic control cell line), 100 μM): 80.7 ± 0.01%
- viability at 24 h, 150 µM ([6]; Hek293T cells (non-leukemic control cell line), 150 μM): 80 ± 0.01%
- viability at 24 h, 200 µM ([6]; Hek293T cells (non-leukemic control cell line), 200 μM): 81 ± 0.02%
- viability at 24 h, 1 µM ([6]; Hek293T cells, 1 μM): 78.1 ± 0.01%
- anticancer activity according to MTT assay results [7]: high anticancer activity
